Assay results from ChEMBL document CHEMBL1201862, “PubChem BioAssay data set” (2004).
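How tested: cells in 96-well plates exposed to compound for 48 hours at five concentrations. At the GI50, growth is halved.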 Activity calls are given as the source filed them. Cut-off read from the data, not from the text of the source: active = GI50 up to about 1.1 µM and inactive = higher.

Experiments:
Assay in all cases: growth of human tumour cells (NCI), 48 h
K562 = tested on: K562
SK-MEL-28 = tested on: SK-MEL-28
OVCAR-3 = tested on: OVCAR-3
HOP-92 = tested on: HOP-92
UACC-62 = tested on: UACC-62
KM12 = tested on: KM12
NCI-H226 = tested on: NCI-H226
HL-60 = tested on: HL-60
ACHN = tested on: ACHN
NCI-H460 = tested on: NCI-H460
HOP-62 = tested on: HOP-62
SNB-19 = tested on: SNB-19
SK-MEL-2 = tested on: SK-MEL-2
MDA-MB-231 = tested on: MDA-MB-231
786-0 = tested on: 786-0
NCI/ADR-RES = tested on: NCI/ADR-RES
OVCAR-5 = tested on: OVCAR-5
MOLT-4 = tested on: MOLT-4
MDA-N = tested on: MDA-N

SMILES | GI50 (K562) | GI50 (SK-MEL-28) | GI50 (OVCAR-3) | GI50 (HOP-92) | GI50 (UACC-62) | GI50 (KM12) | GI50 (NCI-H226) | GI50 (HL-60) | GI50 (ACHN) | GI50 (NCI-H460) | GI50 (HOP-62) | GI50 (SNB-19) | GI50 (SK-MEL-2) | GI50 (MDA-MB-231) | GI50 (786-0) | GI50 (NCI/ADR-RES) | GI50 (OVCAR-5) | GI50 (MOLT-4) | GI50 (MDA-N)
N#Cc1c(-c2ccc(Cl)cc2)cc(-c2ccc(Nc3ccnc4cc(Cl)ccc34)cc2)nc1N | > 100 µM (inactive) | > 100 µM (inactive) | > 100 µM (inactive) | > 100 µM (inactive) | > 100 µM (inactive) | > 100 µM (inactive) | > 100 µM (inactive) | > 100 µM (inactive) | > 100 µM (inactive) | > 100 µM (inactive) | > 100 µM (inactive) | 28.8 µM (inactive) | > 100 µM (inactive) | > 100 µM (inactive) | > 100 µM (inactive) | > 100 µM (inactive) | > 100 µM (inactive) |  | 
COc1ccc(NC2CC(C)N(C(=O)c3ccccc3)O2)cc1 (stereo not given) | > 10 µM (inactive) | > 10 µM (inactive) | > 10 µM (inactive) |  |  |  |  | 9.91 µM (inactive) | > 10 µM (inactive) | > 10 µM (inactive) | > 10 µM (inactive) | > 10 µM (inactive) | > 10 µM (inactive) | > 10 µM (inactive) | > 10 µM (inactive) | > 10 µM (inactive) | > 10 µM (inactive) | > 10 µM (inactive) | > 10 µM (inactive)
C[N+]1(CC[N+]2(C)CCCC2c2cccnc2)CCCC1c1cccnc1 (stereo not given) | 96.4 µM (inactive) | 61.8 µM (inactive) | > 100 µM (inactive) | > 100 µM (inactive) | > 100 µM (inactive) | > 100 µM (inactive) |  |  | > 100 µM (inactive) | > 100 µM (inactive) | > 100 µM (inactive) | > 100 µM (inactive) | > 100 µM (inactive) | > 100 µM (inactive) | 30.4 µM (inactive) | > 100 µM (inactive) | > 100 µM (inactive) | 2.75 µM (inactive) | 32.5 µM (inactive)
CC1(c2ccc[n+](Cc3ccccc3)c2)OCCO1 | > 100 µM (inactive) |  | > 100 µM (inactive) |  | > 100 µM (inactive) | > 100 µM (inactive) | > 100 µM (inactive) | > 100 µM (inactive) | > 100 µM (inactive) | > 100 µM (inactive) | > 100 µM (inactive) | > 100 µM (inactive) | > 100 µM (inactive) |  | > 100 µM (inactive) |  | > 100 µM (inactive) | > 100 µM (inactive) | 
CC(C)(C)OC(=O)C1/C(=C/CO)CN1C(=O)OC(C)(C)C (stereo not given) | > 100 µM (inactive) | > 100 µM (inactive) | > 100 µM (inactive) | > 100 µM (inactive) | > 100 µM (inactive) |  |  | > 100 µM (inactive) | > 100 µM (inactive) | > 100 µM (inactive) | > 100 µM (inactive) | > 100 µM (inactive) | > 100 µM (inactive) |  | > 100 µM (inactive) | > 100 µM (inactive) | > 100 µM (inactive) | 57.3 µM (inactive) | > 100 µM (inactive)
O=C(COc1cc(=O)oc2ccccc12)c1ccccc1 | > 100 µM (inactive) | 32.3 µM (inactive) | 19.4 µM (inactive) | 16.7 µM (inactive) | 16.7 µM (inactive) | 37.9 µM (inactive) | 19.1 µM (inactive) | > 100 µM (inactive) | 19.8 µM (inactive) | > 100 µM (inactive) | 37.8 µM (inactive) | 21.7 µM (inactive) | 30.7 µM (inactive) | 83.8 µM (inactive) | 30.2 µM (inactive) |  | > 100 µM (inactive) | > 100 µM (inactive) | 47 µM (inactive)
O=C1C(Cl)=C(Cl)C(=O)C(CCNc2nccs2)=C1Cl | 22.3 µM (inactive) | 39 µM (inactive) | 25.8 µM (inactive) | 22.1 µM (inactive) | 20.7 µM (inactive) | 32.7 µM (inactive) |  | 43.7 µM (inactive) | 27.4 µM (inactive) | > 100 µM (inactive) | > 100 µM (inactive) | > 100 µM (inactive) | 27.6 µM (inactive) |  | 23.3 µM (inactive) | 25.5 µM (inactive) | 44.3 µM (inactive) | 51.4 µM (inactive) | 
O=C(NC1CCC(=O)N1C(=O)OCc1ccccc1)OCc1ccccc1 (stereo not given) | > 100 µM (inactive) | > 100 µM (inactive) | > 100 µM (inactive) | > 100 µM (inactive) | > 100 µM (inactive) | > 100 µM (inactive) | > 100 µM (inactive) |  | > 100 µM (inactive) | > 100 µM (inactive) | > 100 µM (inactive) | > 100 µM (inactive) | > 100 µM (inactive) | > 100 µM (inactive) | > 100 µM (inactive) | > 100 µM (inactive) | > 100 µM (inactive) | > 100 µM (inactive) | > 100 µM (inactive)
O=C1C=C(Nc2ccc(S(=O)(=O)Nc3ncccn3)cc2)c2ccccc2C1=O | 15.6 µM (inactive) | 26 µM (inactive) | 14.6 µM (inactive) | 33 µM (inactive) | 17.9 µM (inactive) | 18.4 µM (inactive) | 28.4 µM (inactive) | 25.4 µM (inactive) | 27 µM (inactive) | 20.7 µM (inactive) | 24.5 µM (inactive) | 31.2 µM (inactive) | 18.4 µM (inactive) |  | 19.8 µM (inactive) |  | 19.5 µM (inactive) | 48.5 µM (inactive) | 
C=CCN(C(=O)CNC(=O)C(F)(F)F)c1cc(OCc2ccccc2)c2c(c1)c(C)cn2S(=O)(=O)c1ccccc1 | > 23.9 µM (inactive) | > 100 µM (inactive) | > 49.5 µM (inactive) | 4.92 µM (inactive) | 6.76 µM (inactive) | 17.6 µM (inactive) | > 34.8 µM (inactive) | < 0.01 µM (active) | > 26 µM (inactive) | > 30.5 µM (inactive) | > 100 µM (inactive) | > 100 µM (inactive) | > 28.5 µM (inactive) | > 24.1 µM (inactive) | > 100 µM (inactive) | > 100 µM (inactive) | > 100 µM (inactive) | 4.16 µM (inactive) | 
Cc1ccc(S(=O)(=O)N/N=C2/C3CC4CCC2C4C3)cc1 (stereo not given) |  | > 100 µM (inactive) | > 100 µM (inactive) | > 100 µM (inactive) | > 100 µM (inactive) | > 100 µM (inactive) | > 100 µM (inactive) |  | > 100 µM (inactive) | > 100 µM (inactive) | > 100 µM (inactive) |  |  | > 100 µM (inactive) | > 100 µM (inactive) | > 100 µM (inactive) | > 100 µM (inactive) |  | > 100 µM (inactive)
COc1ccc([S+]([O-])Cc2cc(OC)ccc2OC)cc1 (stereo not given) | > 100 µM (inactive) | > 100 µM (inactive) | > 100 µM (inactive) | > 100 µM (inactive) | > 100 µM (inactive) | > 100 µM (inactive) | > 100 µM (inactive) |  | > 100 µM (inactive) | > 100 µM (inactive) | > 100 µM (inactive) | > 100 µM (inactive) |  | > 100 µM (inactive) | > 100 µM (inactive) | > 100 µM (inactive) | > 100 µM (inactive) | > 100 µM (inactive) | > 100 µM (inactive)
C(=N\c1cc2cc(Sc3ccccc3)ccc2[nH]1)/c1ccccc1 | 11 µM (inactive) | > 12.5 µM (inactive) | > 12.5 µM (inactive) | > 12.5 µM (inactive) | 7.11 µM (inactive) | 0.0931 µM (active) |  | > 12.5 µM (inactive) | > 12.5 µM (inactive) |  | 2.08 µM (inactive) | > 12.5 µM (inactive) |  |  | > 12.5 µM (inactive) | > 12.5 µM (inactive) |  | > 12.5 µM (inactive) | 4.91 µM (inactive)
CCOC(=O)C1=C(OC(OCC)C(C)[Se]c2ccccc2)CCC1 (stereo not given) | 42.8 µM (inactive) | 22.6 µM (inactive) | 14.7 µM (inactive) | 24.5 µM (inactive) | 15.2 µM (inactive) | 59 µM (inactive) | 16.6 µM (inactive) | 4.16 µM (inactive) | 26.9 µM (inactive) | 25.4 µM (inactive) | 64.6 µM (inactive) | 36.1 µM (inactive) | > 100 µM (inactive) |  | 12.5 µM (inactive) |  | 51.2 µM (inactive) | 15.9 µM (inactive) | 
COc1ccc(C2=Nc3cc(C)c(C)cc3NC(c3ccccc3)C2)cc1 (stereo not given) | 21.9 µM (inactive) | > 100 µM (inactive) | > 100 µM (inactive) | 24.1 µM (inactive) | > 100 µM (inactive) | > 100 µM (inactive) | > 100 µM (inactive) | 18.7 µM (inactive) | > 100 µM (inactive) | 46.2 µM (inactive) | > 100 µM (inactive) | > 100 µM (inactive) | > 100 µM (inactive) | > 100 µM (inactive) | > 100 µM (inactive) | 43.4 µM (inactive) | > 100 µM (inactive) | 16.3 µM (inactive) | 
COc1cc(C2c3[nH]c4ccccc4c3C[C@H]3COC(=O)N23)cc(OC)c1OC (stereo not given in full) | 0.0349 µM (active) | 0.0796 µM (active) | 0.0307 µM (active) | 0.92 µM (active) | 0.0348 µM (active) | 0.0552 µM (active) | 0.0574 µM (active) | 0.0336 µM (active) | 0.214 µM (active) | 0.055 µM (active) | 0.0467 µM (active) | 0.0803 µM (active) | 0.0655 µM (active) | 0.815 µM (active) | 0.0304 µM (active) |  | 0.112 µM (active) | 0.0966 µM (active) | 0.0181 µM (active)
COCC1N=C(c2cc(OC)c(OC)c(OC)c2-c2cc3c(cc2[C@H](C)O)OCO3)O[C@H]1c1ccccc1 (stereo not given in full) | > 10 µM (inactive) | 59.2 µM (inactive) | 47.4 µM (inactive) | 27.2 µM (inactive) | > 100 µM (inactive) | 52.6 µM (inactive) | > 100 µM (inactive) | > 10 µM (inactive) | 40.7 µM (inactive) |  |  | 61 µM (inactive) | 36.7 µM (inactive) |  | > 100 µM (inactive) |  |  | 41.6 µM (inactive) | 
